# Data: patent publication US9663528B2, “Substituted 1,2,3,4,6,8,12,12a-octahydro-1,4-methanodipyrido[1,2-a:1',2'-d]pyrazines and methods for treating viral infections” (priority 2012, dated 2017)
# Where two headings read alike, the source gives them in different places.
# Tests used:
# PXR = PXR (Homo sapiens (Human), UniProt O75469); assay: Human PXR activation assay (luciferase reporter gene assay, DPX2 cells); format: cell-based; settings: human
# Method: A stably transformed tumor cell line (DPX2) was plated on 96-well microtiter plates. DPX2 cells harbor the human PXR gene (NR112) and a luciferase reporter gene linked to two promoters identified in the human CYP3A4 gene, namely XREM and PXRE. […] The number of viable cells was determined and the reporter gene activity was assessed. Positive control: […]
# [1] = Cytotoxicity (CC50) in MT-4 cells, mock-infected, CellTiter-Glo; settings: human
# Method: For the antiviral assay utilizing MT4 cells, 0.4 μL of […] test concentration of 3-fold serially diluted compound in DMSO was added to 40 μL of cell growth medium (RPMI 1640, 10% FBS, 1% penicilline/Streptomycine, 1% L-Glutamine, 1% HEPES) in each well of 384-well assay plates (10 concentrations) in quidruplicate.
# 1 mL aliquots of 2×10^6 MT4 cells are pre-infected for 1 and 3 hours respectively at 37° C. with 25 μL (MT4) or of either cell growth medium (mock-infected) or a fresh 1:250 dilution of an HIV-IIIb concentrated ABI stock (0.004 m.o.i. for MT4 cells). Infected and uninfected cells are diluted in cell growth medium and 35 μL of 2000 (for MT4) cells is added to each well of the assay plates.
# Assay plates were then incubated in a 37° C. incubator. After 5 days of incubation, 25 μL of 2× concentrated CellTiter-Glo™ Reagent (catalog #G7573, Promega Biosciences, Inc., Madison, Wis.) was added to each well of the assay plate. Cell lysis was carried out by incubating at room temperature for 2-3 minutes, and then chemiluminescence was read using the Envision reader (PerkinElmer).
# [2] = 15 μM, relative to maximum fold induction by 10 or 20 μM rifampicin, DPX2 cells, 24 hours, read-out: % Emax at 15 μM
# Sequence of PXR (O75469 whole entry): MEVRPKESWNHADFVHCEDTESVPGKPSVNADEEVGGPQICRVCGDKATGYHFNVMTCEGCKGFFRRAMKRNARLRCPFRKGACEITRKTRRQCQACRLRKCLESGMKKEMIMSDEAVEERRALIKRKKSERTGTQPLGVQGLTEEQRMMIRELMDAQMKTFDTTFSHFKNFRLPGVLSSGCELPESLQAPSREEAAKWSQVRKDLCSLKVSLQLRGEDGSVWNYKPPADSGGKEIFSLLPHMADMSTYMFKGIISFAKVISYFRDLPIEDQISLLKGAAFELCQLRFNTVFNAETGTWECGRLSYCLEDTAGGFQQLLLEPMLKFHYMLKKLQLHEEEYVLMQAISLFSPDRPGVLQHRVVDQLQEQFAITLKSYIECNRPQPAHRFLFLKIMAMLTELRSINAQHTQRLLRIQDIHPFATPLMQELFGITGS
Structure (SMILES),"Emax at 24 h, 15 µM (PXR; [2])","CC50 at 5 days ([1]; MT-4 cells, mock-infected, CC50 nM in MT-4, MT-4 cells, 5 days incubation)",CC50 at 5 days ([1]; CC50 nM in MT-4),"Emax at 24 h, 15 µM (PXR)"
"O=C(NCc1c(F)cc(F)cc1F)c1cn2c(c(O)c1=O)C(=O)N1[C@H]3C[C@H](C3)[C@@H]1C2 (single isomer, unassigned) [Compound 97]",9%,17300 nM,–,–
"O=C(NCc1ccc(F)cc1F)c1cn2c(c(O)c1=O)C(=O)N1C(C2)[C@H]2CC[C@@H]1C2 (stereo in doubt) [Compound 38, (1S,4R,12aR)-N-(2,4-difluorobenzyl)-7-hydroxy-6,8-dioxo-1,2,3,4,6,8,12,12a-octahydro-1,4-methanodipyrido[1,2-a:1′,2′-d]pyrazine-9-carboxamide]",7%,–,10200 nM,–
"O=C(NCc1c(F)cc(F)cc1F)c1cn2c(c(O)c1=O)C(=O)N1[C@H]3CC(F)C(C3)[C@@H]1C2 (stereo in doubt) [Compound 56, (1R,2S,4R,12aR)-2-fluoro-7-hydroxy-6,8-dioxo-N-(2,4,6-trifluorobenzyl)-1,2,3,4,6,8,12,12a-octahydro-1,4-methanodipyrido[1,2-a:1′,2′-d]pyrazine-9-carboxamide]",–,–,17200 nM,3%
"O=C(NCc1ccc(F)cc1F)c1cn2c(c(O)c1=O)C(=O)N1C(C2)[N@@]2CC[C@@H]1C2 (stereo partly drawn) [Compound 4, (1S,4R)-N-(2,4-difluorobenzyl)-7-hydroxy-6,8-dioxo-3,4,6,8,12,12a-hexahydro-2H-1,4-methanopyrido[1′,2′:4,5]pyrazino[1,2-a]pyrimidine-9-carboxamide]",–,–,45800 nM,3%
"O=C(NCc1ccc(F)cc1F)c1cn2c(c(O)c1=O)C(=O)N1C(C2)[N@]2CC[C@H]1C2 (stereo partly drawn) [Compound 6, (1R,4S)-N-(2,4-difluorobenzyl)-7-hydroxy-6,8-dioxo-3,4,6,8,12,12a-hexahydro-2H-1,4-methanopyrido[1′,2′:4,5]pyrazino[1,2-a]pyrimidine-9-carboxamide]",–,–,–,0%
"C[C@@H](NC(=O)c1cn2c(c(O)c1=O)C(=O)N1[C@H]3CC[C@H](C3)O[C@@H]1C2)c1ccc(F)cc1 [Compound 10, (2R,5S,13aR)-N—((R)-1-(4-fluorophenyl)ethyl)-8-hydroxy-7,9-dioxo-2,3,4,5,7,9,13,13a-octahydro-2,5-methanopyrido[1′,2′:4,5]pyrazino[2,1-b][1,3]oxazepine-10-carboxamide]",–,–,3670 nM,19%
"O=C(NCc1ccc(F)cc1)c1cn2c(c(O)c1=O)C(=O)N1[C@@H]3CC[C@@H](C3)O[C@H]1C2 [Compound 15, (2S,5R,13aS)-N-(4-fluorobenzyl)-8-hydroxy-7,9-dioxo-2,3,4,5,7,9,13,13a-octahydro-2,5-methanopyrido[1′,2′:4,5]pyrazino[2,1-b][1,3]oxazepine-10-carboxamide]",–,–,16300 nM,20%
"O=C(NCc1cccc(F)c1F)c1cn2c(c(O)c1=O)C(=O)N1[C@@H]3CC[C@@H](C3)O[C@H]1C2 [Compound 16, (2S,5R,13aS)-N-(2,3-difluorobenzyl)-8-hydroxy-7,9-dioxo-2,3,4,5,7,9,13,13a-octahydro-2,5-methanopyrido[1′,2′:4,5]pyrazino[2,1-b][1,3]oxazepine-10-carboxamide]",–,–,13600 nM,17%
"O=C(NCc1ccc(Cl)cc1F)c1cn2c(c(O)c1=O)C(=O)N1[C@@H]3CC[C@@H](C3)O[C@H]1C2 [Compound 17, (2S,5R,13aS)-N-(4-chloro-2-fluorobenzyl)-8-hydroxy-7,9-dioxo-2,3,4,5,7,9,13,13a-octahydro-2,5-methanopyrido[1′,2′:4,5]pyrazino[2,1-b][1,3]oxazepine-10-carboxamide]",–,–,6610 nM,7%
"O=C(NCc1ccc(F)c(F)c1)c1cn2c(c(O)c1=O)C(=O)N1[C@@H]3CC[C@@H](C3)O[C@H]1C2 [Compound 18, (2S,5R,13aS)-N-(3,4-difluorobenzyl)-8-hydroxy-7,9-dioxo-2,3,4,5,7,9,13,13a-octahydro-2,5-methanopyrido[1′,2′:4,5]pyrazino[2,1-b][1,3]oxazepine-10-carboxamide]",–,–,10300 nM,4%
"O=C(NCc1ccc(F)cc1F)c1cn2c(c(O)c1=O)C(=O)N1C(C2)[N@]2CCC[C@H]1C2 (stereo partly drawn) [Compound 19, (1R,5S)-N-(2,4-difluorobenzyl)-8-hydroxy-7,9-dioxo-2,3,4,5,7,9, 13,13a-octahydro-1,5-methanopyrido[1′,2′:4,5]pyrazino[1,2-a][1,3]diazepine-10-carboxamide]",–,–,38700 nM,2%
"O=C(NCc1ccc(F)cc1F)c1cn2c(c(O)c1=O)C(=O)N1C(C2)[N@@]2CCC[C@@H]1C2 (stereo partly drawn) [Compound 20, (1S,5R)-N-(2,4-difluorobenzyl)-8-hydroxy-7,9-dioxo-2,3,4,5,7,9,13,13a-octahydro-1,5-methanopyrido[1′,2′:4,5]pyrazino[1,2-a][1,3]diazepine-10-carboxamide]",–,–,28000 nM,2%
"O=C(NCc1ccccc1F)c1cn2c(c(O)c1=O)C(=O)N1[C@@H]3CC[C@@H](C3)O[C@H]1C2 [Compound 23, (2S,5R,13aS)-N-(2-fluorobenzyl)-8-hydroxy-7,9-dioxo-2,3,4,5,7,9,13,13a-octahydro-2,5-methanopyrido[1′,2′:4,5]pyrazino[2,1-b][1,3]oxazepine-10-carboxamide]",–,–,13400 nM,45%
"O=C(NC1(c2ccc(F)cc2F)CC1)c1cn2c(c(O)c1=O)C(=O)N1C(C2)O[C@H]2CCC[C@@H]1C2 (stereo partly drawn) [Compound 28, (2S,6R)-N-(1-(2,4-difluorophenyl)cyclopropyl)-9-hydroxy-8,10-dioxo-3,4,5,6,8,10,14,14a-octahydro-2H-2,6-methanopyrido[1′,2′:4,5]pyrazino[2,1-b][1,3]oxazocine-11-carboxamide]",–,–,18700 nM,6%
"O=C(NCc1cccc(C(F)(F)F)c1F)c1cn2c(c(O)c1=O)C(=O)N1[C@H]3CC[C@H](C3)[C@@H]1C2 [Compound 74, (1R,4S,12aR)-N-(2-fluoro-3-(trifluoromethyl)benzyl)-7-hydroxy-6,8-dioxo-1,2,3,4,6,8,12,12a-octahydro-1,4-methanodipyrido[1,2-a:1′,2′-d]pyrazine-9-carboxamide]",–,–,4340 nM,–
"O=C(NCc1ncc(F)cc1F)c1cn2c(c(O)c1=O)C(=O)N1[C@H]3CC[C@H](C3)[C@@H]1C2 [Compound 76, (1R,4S,12aR)-N-((3,5-difluoropyridin-2-yl)methyl)-7-hydroxy-6,8-dioxo-1,2,3,4,6,8,12,12a-octahydro-1,4-methanodipyrido[1,2-a:1′,2′-d]pyrazine-9-carboxamide]",–,–,34600 nM,–
"C[C@@H](NC(=O)c1cn2c(c(O)c1=O)C(=O)N1[C@@H]3CC[C@H](C3)O[C@@H]1C2)c1c(F)cc(F)cc1F [Compound 78, (2R,13aR)-8-hydroxy-7,9-dioxo-N—((R)-1-(2,4,6-trifluorophenyl)ethyl)-2,3,4,5,7,9,13,13a-octahydro-2,5-methanopyrido[1′,2′:4,5]pyrazino[2,1-b][1,3]oxazepine-10-carboxamide]",–,–,3200 nM,–
"O=C(NCc1ccccc1)c1cn2c(c(O)c1=O)C(=O)N1[C@H]3CC[C@H](C3)[C@@H]1C2 [Compound 94, (1R,4S,12aR)-N-benzyl-7-hydroxy-6,8-dioxo-1,2,3,4,6,8,12,12a-octahydro-1,4-methanodipyrido[1,2-a:1′,2′-d]pyrazine-9-carboxamide]",–,–,51200 nM,–
